These results are taken from patent publication US20090209617A1, “DULOXETINE SALTS” (priority 2006, published 2009).

Counter-ions that a name gives are not always drawn.

Data set [1] is described as follows: HPLC assay of the impurity of the Formula (II) in the duloxetine salt obtained. The class given is physicochemical. To be noted: rearrangement product of duloxetine, salt as obtained, limit of detection 0.01 percent by weight. The procedure: The limit of detection for the compound of the Formula (II) is a feature of the high-performance liquid chromatographic method used for the assay thereof. Using the chromatographic method disclosed in the present application, said limit of detection is 0.01 percent by weight.
The analysis is carried out using ultraviolet absorption detector under the following chromatographic conditions:
Column, Chiral OD-R, 250*4,6 mm, 10 μm particle size • Flow rate, 1.0 ml/minute • Injection volume, 10 μl • Column temperature, 40° C. • Temperature of sample compartment, 20° C. • Detection wavelength, 220 nm • Mobile phase A: solution of 40 g of sodium hydroxide and 85 ml of concentrated perchloric acid are dissolved in 200 ml of distilled water, pH 2.1 • B: acetonitrile • Eluent composition, isocratic, 55 percent by volume mobile phase A • Analysis time, 30 minutes • Sample concentration, 10 mg/10 ml • Sample solvent, water-acetonitrile 80:20 volume/volume • Needle wash, water-acetonitrile […] volume/volume • Selectivity factor, >4 • Number of theoretical plates, min. 10000 • Asymmetry factor, <2
The assay is carried out according to the requirements of the pharmacopoeia regarding the determination of the impurities.
A sample containing approximately 100 mg of duloxetine is thoroughly homogenized in a mortar, weighed with analytical precision and transferred into a suitable volumetric flask. 80 ml of 80:20 volume by volume mixture of water and acetonitrile are added to the sample and the suspension is shaked in an ultrasonic bath for 10 minutes at the temperature of 25° C. The suspension is filtered and completed to 100 ml with the extraction solvent.

A short description of data set [2]: Stability testing of duloxetine-containing medicinal products (HPLC, mass spectrometry). The class given is physicochemical. To be noted: during manufacture of the salt and during shelf-life of the medicinal products prepared from it. The procedure: During the process of stability testing, the identity and concentration of individual impurities present in the medicinal product are determined as the function of time and storage conditions. In the aforementioned tests, generally high-performance liquid chromatography and mass spectrometry are used as analytical methods.
In order to identify the above mentioned impurities, each of them has been separated by high-performance liquid chromatography and their molecular weight was determined by mass spectrometry.
Subsequently, the compound of the Formula (II) has been prepared by the rearrangement of duloxetine hydrobromide in pure form and in good yield and the thus obtained product was subjected to structure elucidation. The identity of the thus obtained (±)-N-methyl-3-(2-thienyl)-3-(4-hydroxy-1-naphtyl)-propylamine of the Formula (II) with the impurity observed during the stability testing has been established using high-performance liquid chromatography and mass spectrometry.
The following sample preparation method has been used during the stability testing of duloxetine-containing medicinals products and assay of duloxetine active ingredients.
A sample containing approximately 100 mg of duloxetine is thoroughly homogenized in a mortar, weighed with analytical precision and transferred into a suitable volumetric flask. 80 ml of 80:20 volume by volume mixture of water and acetonitrile are added to the sample and the suspension is shaked in an ultrasonic bath for 10 minutes at the temperature of 25° C. The suspension is filtered and completed to 100 ml with the extraction solvent. A 10-μl portion of the thus obtained solution is analyzed by the high-performance liquid chromatographic method of Example 9.

For data set [3] the following is noted: preparation of salts with strong mineral acids, especially hydrobromic acid; 25 to 50° C.

Broadly, the melting point is the temperature of the solid-liquid transition.

Take `CNCCC(c1cccs1)c1ccc(O)c2ccccc12` (racemic): the melting point lay in the range of 190 to 196 °C.

Consider `CNCCC(Oc1cccc2ccccc12)c1cccs1.O=C(O)C(O)c1ccccc1` (stereo not drawn) [Example 3, (+)-N-methyl-3-(1-naphtyloxy)-3-(2-thienyl)-propylamine(−)-mandelate (1:1)], for which, in data set [1], the “amount of the impurity of the Formula (II) in the product” value (from here on “amount of the impurity of the Formula”) was “less than 0.01 percent by weight”. Besides, the “formation of (±)-N-methyl-3-(2-thienyl)-3-(4-hydroxy-1-naphtyl)-propylamine of the Formula (II)” value (“formation” for short) in data set [2] is on record as “can be detected neither during the manufacture of the above-mentioned particularly preferable salts, nor during the shelf-life”. As to `CNCC[C@H](Oc1cccc2ccccc12)c1cccs1` [Example 6, (+)-N-methyl-3-(1-naphtyloxy)-3-(2-thienyl)-propylamine hydrochloride (1:1), reference compound], the “amount of the impurity of the Formula” value in data set [1] is “approximately 0.05 percent by weight”. As for `CNCC[C@H](Oc1cccc2ccccc12)c1cccs1` [duloxetine, (+)-(S)—N-methyl-3-(1-naphtyloxy)-3-(2-thienyl)-propylamine], the “time in which the compound of the Formula (II) forms” value in data set [3] is on record as “a few minutes”. For “(+)-N-methyl-3-(1-naphtyloxy)-3-(2-thienyl)-propylamine citrate (1:1) [Example 1]”, in data set [1], the “amount of the impurity of the Formula” value is reported as “less than 0.01 percent by weight”. Moreover, the “formation” value in data set [2] is listed as “can be detected neither during the manufacture of the above-mentioned particularly preferable salts, nor during the shelf-life”. For “(+)-N-methyl-3-(1-naphtyloxy)-3-(2-thienyl)-propylamine fumarate (1:1) [Example 2]”, the “amount of the impurity of the Formula” value in data set [1] was “less than 0.01 percent by weight”. For the same molecule, the “formation” value in data set [2] is listed as “can be detected neither during the manufacture of the above-mentioned particularly preferable salts, nor during the shelf-life”.
